As a reminder, the IC50 is the concentration needed to halve the response being measured.

We go through 17 compounds from patent US11071735B2, “Treatment of inflammatory conditions and autoimmune diseases with glucose uptake inhibitors” (Kadmon Corporation, LLC, priority 2017, dated 2021).

Common to all, as to format: cell-based
The target in one assay is T1, GLUT1 (Homo sapiens, UniProt P11166).
T1 construct: endogenous in cells; host or cells: DLD1 WT cancer cells
T1 sequence (P11166 1-492): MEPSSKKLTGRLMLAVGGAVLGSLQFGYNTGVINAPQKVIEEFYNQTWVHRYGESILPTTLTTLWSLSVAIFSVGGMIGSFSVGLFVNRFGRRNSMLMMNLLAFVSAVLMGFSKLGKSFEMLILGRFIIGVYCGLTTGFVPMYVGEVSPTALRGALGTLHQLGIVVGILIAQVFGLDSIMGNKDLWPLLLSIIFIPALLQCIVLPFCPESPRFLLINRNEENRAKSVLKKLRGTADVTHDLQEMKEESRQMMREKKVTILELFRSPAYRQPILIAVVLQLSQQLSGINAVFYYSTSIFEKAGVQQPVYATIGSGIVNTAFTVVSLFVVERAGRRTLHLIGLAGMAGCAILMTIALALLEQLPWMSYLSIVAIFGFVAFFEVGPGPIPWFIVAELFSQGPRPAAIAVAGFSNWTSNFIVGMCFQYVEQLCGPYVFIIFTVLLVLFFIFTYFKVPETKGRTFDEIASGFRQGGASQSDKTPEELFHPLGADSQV
Description: glycolysis assay in DLD1 WT cells (rely on GLUT1). The conditions noted are these: DLD1-WT cells; 10 μM oligomycin, one hour. On the procedure:
(§1) Cells were treated with GLUT inhibitors plus oligomycin and subsequently ATP levels were determined using Cell Titer Glo. […] FIG. 1B reports the IC50 of glycolysis inhibition for selected compounds.
(§2) Accordingly, we have investigated the use of inhibitors of GLUT transporters against activated pro-inflammatory immune cells, including but not limited to activated human CD4+ T cells. In order to understand what GLUT transporters are required to sustain glycolysis in activated T cells, we first utilized the syngeneic cancer cell lines DLD1 WT and DLD GLUT1−/− that rely on GLUT1 and GLUT3 expression, respectively, for glucose transport. Within this system, we have identified small molecules that simultaneously have the property of inhibiting both GLUT1 and GLUT3 mediated glucose transport. In addition, we have confirmed the GLUT1-selective nature of a published small molecule inhibitor of GLUT1 (Chem Med Chem. 2016 Oct. 19; 11(20):2261-2271).
(§3) Determination of glucose uptake/GLUT activity (glycolysis assay): HT1080 cells, DLD1 cells (WT and GLUT1−/−) and human CD4+ T cells were plated in 96-well plates. Cells were exposed to the combination of 10 μM Oligomycin (to block mitochondrial-derived ATP) and the glucose uptake inhibitors disclosed herein for one-hour, after which glycolytically-derived ATP was measured with the Cell Titer-Glo assay kit (Promega). Dose-response curves of the glucose uptake inhibitors disclosed herein were used to determine the IC50 for GLUT activity.

The target of another assay is T2, GLUT3 (Homo sapiens, UniProt P11169).
T2 construct: endogenous in cells; host or cells: DLD1 GLUT1−/− (knock-out) cancer cells
T2 sequence (P11169 1-496): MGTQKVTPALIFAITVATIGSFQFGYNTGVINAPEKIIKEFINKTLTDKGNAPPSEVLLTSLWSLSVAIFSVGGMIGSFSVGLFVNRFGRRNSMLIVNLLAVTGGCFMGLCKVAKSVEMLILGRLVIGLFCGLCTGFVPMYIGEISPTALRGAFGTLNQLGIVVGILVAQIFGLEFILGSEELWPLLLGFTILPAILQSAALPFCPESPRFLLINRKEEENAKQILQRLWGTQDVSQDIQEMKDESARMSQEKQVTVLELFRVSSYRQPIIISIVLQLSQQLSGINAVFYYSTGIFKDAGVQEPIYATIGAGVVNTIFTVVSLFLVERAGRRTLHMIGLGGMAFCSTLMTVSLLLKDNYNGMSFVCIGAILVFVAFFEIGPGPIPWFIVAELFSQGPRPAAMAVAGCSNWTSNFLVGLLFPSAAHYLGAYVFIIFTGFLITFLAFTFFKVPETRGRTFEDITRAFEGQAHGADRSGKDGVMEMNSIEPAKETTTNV
The assay can be described thus: glycolysis assay in DLD1 GLUT1−/− cells (rely on GLUT3). Particulars: DLD1-KO (GLUT1−/−) cells; 10 μM oligomycin, one hour. As to the method: as §1, §2, §3

A further assay has as its system GLUT. The assay can be described thus: glycolysis assay (oligomycin + Cell Titer-Glo ATP readout) in HT1080 cells. Particulars: 10 μM oligomycin, one hour, glycolytically-derived ATP.
Excerpt: The combination of inhibitors of both oxidative phosphorylation and glycolysis synergistically suppress cellular ATP levels. Therefore, our assay utilizes the combination of our glucose uptake inhibitors with oligomycin, a well-characterized inhibitor of ATP synthase. Because oligomycin inhibits ATP derived from oxidative phosphorylation, any remaining ATP production is derived from glycolysis. By reading out cellular ATP levels using the Promega
Titer Glo kit, we can assess the extent of glycolysis inhibition by our glucose uptake inhibitors. Using this experimental set-up in HT1080 cancer cells, we determined the IC50 of glycolysis inhibition for the compounds.
as §3
On the technique in general: Cellular ATP, detected with luciferase, serves as a proxy for viable cell number.

The structures appear in SMILES notation.

`COCCOc1ccc2nc(-c3cccc(OCC(=O)NC(C)(C)C)c3)nc(Nc3ccc(-c4cn[nH]c4)cc3)c2c1` [Ex. 39, 2-(3-(4-((4-(1H-Pyrazol-4-yl)phenyl)amino)-6-(2-methoxyethoxy)quinazolin-2-yl)phenoxy)-N-(tert-butyl)acetamide]: the figures for the IC50 at GLUT1, at GLUT3 and with GLUT were 40.6 nM, 34.2 nM and 34.1 nM, respectively.
The like results for `CC(C)NC(=O)COc1cccc(-c2nc(Nc3ccc(-c4cn[nH]c4)cc3)c3cc(OCCF)ccc3n2)c1` [Ex. 40, 2-(3-(4-((4-(1H-Pyrazol-4-yl)phenyl)amino)-6-(2-fluoroethoxy)quinazolin-2-yl)phenoxy)-N-isopropylacetamide] were, in that order, 160 nM, 68.3 nM and 98 nM.
The like results for `CC(C)NC(=O)COc1cccc(-c2nc(Nc3ccc(-c4cn[nH]c4)cc3)c3cc(OC(C)C)ccc3n2)c1` [Ex. 41, 2-(3-(4-((4-(1H-pyrazol-4-yl)phenyl)amino)-6-isopropoxyquinazolin-2-yl)phenoxy)-N-isopropylacetamide] were, in that order, 48.8 nM, 191 nM and 107 nM.
As for `CCC(C)NC(=O)COc1cccc(-c2nc(Nc3ccc(-c4cn[nH]c4)cc3)c3cc(OCCOC)ccc3n2)c1` (stereo not drawn) [Ex. 42, 2-(3-(4-((4-(1H-pyrazol-4-yl)phenyl)amino)-6-(2-methoxyethoxy)quinazolin-2-yl)phenoxy)-N-(sec-butyl)acetamide], the IC50 turned out to be 30.7 nM at GLUT1, 41.6 nM on GLUT3 and 31.2 nM in the assay on GLUT.
The matching figures for `CCC(C)NC(=O)COc1cccc(-c2nc(Nc3ccc(-c4cn[nH]c4)cc3)c3cc(OCCF)ccc3n2)c1` (stereo not drawn) [Ex. 43, 2-(3-(4-((4-(1H-pyrazol-4-yl)phenyl)amino)-6-(2-fluoroethoxy)quinazolin-2-yl)phenoxy)-N-(sec-butyl)acetamide]: 34.4 nM, 58.9 nM and 46 nM.
In the case of `CCC(C)NC(=O)COc1cccc(-c2nc(Nc3ccc(-c4cn[nH]c4)cc3)c3cc(F)ccc3n2)c1` (stereo not drawn) [Ex. 44, 2-(3-(4-((4-(1H-pyrazol-4-yl)phenyl)amino)-6-fluoroquinazolin-2-yl)phenoxy)-N-(sec-butyl)acetamide], the concentration for half-maximal inhibition (IC50) at GLUT1 came to 91.2 nM; at GLUT3, 159 nM; with GLUT, 123 nM.
The matching figures for `CC[C@H](C)NC(=O)COc1cccc(-c2nc(Nc3ccc(-c4cn[nH]c4)cc3)c3cc(OCCOC)ccc3n2)c1` [Ex. 45, (S)-2-(3-(4-((4-(1H-pyrazol-4-yl)phenyl)amino)-6-(2-methoxyethoxy)quinazolin-2-yl)phenoxy)-N-(sec-butyl)acetamide]: 25.2 nM, 40.6 nM and 25.1 nM.
The like results for `CC[C@H](C)NC(=O)COc1cccc(-c2nc(Nc3ccc(-c4cn[nH]c4)cc3)c3cc(OCCF)ccc3n2)c1` [Ex. 46, (S)-2-(3-(4-((4-(1H-pyrazol-4-yl)phenyl)amino)-6-(2-fluoroethoxy)quinazolin-2-yl)phenoxy)-N-(sec-butyl)acetamide] were, in that order, 34.8 nM, 87 nM and 37.1 nM.
For the compound `CC[C@H](C)NC(=O)COc1cccc(-c2nc(Nc3ccc(-c4cn[nH]c4)cc3)c3cc(F)ccc3n2)c1` [Ex. 47, (S)-2-(3-(4-((4-(1H-pyrazol-4-yl)phenyl)amino)-6-fluoroquinazolin-2-yl)phenoxy)-N-(sec-butyl)acetamide], the IC50 amounted to 94.9 nM at GLUT1, 133 nM on GLUT3 and 111 nM in the assay on GLUT.
The like results for `CC[C@H](C)NC(=O)COc1cccc(-c2nc(Nc3ccc(-c4cn[nH]c4)cc3)c3cc(OC)ccc3n2)c1` [Ex. 48, (S)-2-(3-(4-((4-(1H-pyrazol-4-yl)phenyl)amino)-6-methoxyquinazolin-2-yl)phenoxy)-N-(sec-butyl)acetamide] were, in that order, 71.6 nM, 110 nM and 81.5 nM.
The matching figures for `CC[C@@H](C)NC(=O)COc1cccc(-c2nc(Nc3ccc(-c4cn[nH]c4)cc3)c3cc(OCCOC)ccc3n2)c1` [Ex. 49, (R)-2-(3-(4-((4-(1H-pyrazol-4-yl)phenyl)amino)-6-(2-methoxyethoxy)quinazolin-2-yl)phenoxy)-N-(sec-butyl)acetamide]: 30.3 nM, 50.9 nM and 30.7 nM.
The matching figures for `CC[C@@H](C)NC(=O)COc1cccc(-c2nc(Nc3ccc(-c4cn[nH]c4)cc3)c3cc(OCCF)ccc3n2)c1` [Ex. 50, (R)-2-(3-(4-((4-(1H-pyrazol-4-yl)phenyl)amino)-6-(2-fluoroethoxy)quinazolin-2-yl)phenoxy)-N-(sec-butyl)acetamide]: 38.5 nM, 72.1 nM and 44.7 nM.
Consider `CC[C@@H](C)NC(=O)COc1cccc(-c2nc(Nc3ccc(-c4cn[nH]c4)cc3)c3cc(F)ccc3n2)c1` [Ex. 51, (R)-2-(3-(4-((4-(1H-pyrazol-4-yl)phenyl)amino)-6-fluoroquinazolin-2-yl)phenoxy)-N-(sec-butyl)acetamide], for which the figures for the half-inhibitory concentration (IC50) on GLUT1, at GLUT3 and with GLUT were 106 nM, 125 nM and 113 nM, respectively.
The like results for `CC[C@@H](C)NC(=O)COc1cccc(-c2nc(Nc3ccc(-c4cn[nH]c4)cc3)c3cc(OC)ccc3n2)c1` [Ex. 52, (R)-2-(3-(4-((4-(1H-pyrazol-4-yl)phenyl)amino)-6-methoxyquinazolin-2-yl)phenoxy)-N-(sec-butyl)acetamide] were, in that order, 81.6 nM, 118 nM and 92.1 nM.
On to `CCC(C)NC(=O)COc1cccc(-c2nc(Nc3ccc(-c4cn[nH]c4)cc3)c3ccc(F)cc3n2)c1` (stereo not drawn) [Ex. 53, 2-(3-(4-((4-(1H-pyrazol-4-yl)phenyl)amino)-7-fluoroquinazolin-2-yl)phenoxy)-N-(sec-butyl)acetamide], for which the 50% inhibitory concentration (IC50) at GLUT1 was 222 nM; at GLUT3, 271 nM; with GLUT it was 283 nM.
The matching figures for `CC[C@H](C)NC(=O)COc1cccc(-c2nc(Nc3ccc(-c4cn[nH]c4)cc3)c3ccc(F)cc3n2)c1` [Ex. 54, (S)-2-(3-(4-((4-(1H-pyrazol-4-yl)phenyl)amino)-7-fluoroquinazolin-2-yl)phenoxy)-N-(sec-butyl)acetamide]: 146 nM, 290 nM and 196 nM.
Take `CC[C@@H](C)NC(=O)COc1cccc(-c2nc(Nc3ccc(-c4cn[nH]c4)cc3)c3ccc(F)cc3n2)c1` [Ex. 55, (R)-2-(3-(4-((4-(1H-pyrazol-4-yl)phenyl)amino)-7-fluoroquinazolin-2-yl)phenoxy)-N-(sec-butyl)acetamide]: the IC50 is 192 nM on GLUT1, 238 nM at GLUT3 and 190 nM in the assay on GLUT.
